From article PMC7044277 (Nature Communications, 2020)
Several values for one entry are separate records, joined by “and”; a condition that tells them apart may be missing. Equal values may be shown once.

Tested on: 320 non-olfactory GPCRs
Type: cell-based
Parameters: GPCRome screening signal at PTGIR / GPCRome screening signal at PTH1R / GPCRome screening signal at PTH2R / GPCRome screening signal at QRFP / GPCRome screening signal at RXFP2 / GPCRome screening signal at RXFP3 / GPCRome screening signal at RXFP4 / GPCRome screening signal at S1PR2 / GPCRome screening signal at S1PR3 / GPCRome screening signal at S1PR4 / GPCRome screening signal at S1PR5 / GPCRome screening signal at SCTR / GPCRome screening signal at SSTR2 / GPCRome screening signal at SSSTR / GPCRome screening signal at SSTR4 / GPCRome screening signal at SSTR5 / GPCRome screening signal at SUCNR1 / GPCRome screening signal at TA1 / GPCRome screening signal at TAAR2 / GPCRome screening signal at TAAR5 / GPCRome screening signal at TAAR6 / GPCRome screening signal at TAAR8 / GPCRome screening signal at TACR1 / GPCRome screening signal at TACR2 / GPCRome screening signal at TACR3 / GPCRome screening signal at TBXA2R / GPCRome screening signal at TSHR / GPCRome screening signal at UTS2R / GPCRome screening signal at VIPR2 / GPCRome screening signal at GPR68 no V2 Tail / GPCRome screening signal at GRM2 / GPCRome screening signal at GRM3: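 fold over basal response of each receptor without drug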
Conditions: Fig_5f, single replicate values

How did the “GPCRome screening signal at GPR68 no V2 Tail” value (receptor GPR68 no V2 Tail) turn out when `CCOc1ccccc1CCC(C)NCC1(O)CCCCC1.Cl` (racemic) [Fig_5f] was run?
Its value is 1.613 and 0.9285 and 0.7993 and 0.365.

What about the “GPCRome screening signal at QRFP” value (receptor QRFP) of the same molecule?
The value was 1.818 and 1.297 and 0.5847 and 0.9504.

And the “GPCRome screening signal at SSSTR” value (receptor SSSTR)?
Its value is 1.07 and 0.3317 and 0.4095 and 0.9006.
